From US20130203649A1, “INHIBITORS OF TLR SIGNALING BY TARGETING TIR DOMAIN INTERFACES” (UNIVERSITY OF MARYLAND, BALTIMORE, priority 2012, published 2013)
No end group written: not given here.

Legend:
[1] = tested on: TLR4; assay: Inhibition of TLR4 signaling in thioglycollate-elicited mouse macrophages (effective concentration, overall inhibitory activity); assay type: cell-based; conditions: TLR4 pathway; thioglycollate-elicited mouse macrophages
Experimental: (§1) C57BL/6J mice were obtained from The Jackson Laboratory (Bar Harbor, Me.). Primary peritoneal macrophages were obtained by peritoneal lavage 4 days after intraperitoneal injection (3 ml) of sterile 3% thioglycolate broth. Washed cells were resuspended in RPMI 1640 which contained 2% FBS, 1% penicillin:streptomycin and 2 mM L-glutamine. After plating, cells were incubated overnight at 37° C. and then washed with PBS to remove non-adherent cells. Cells were exposed to peptides 30 min before stimulation with a TLR agonist.
TIRAP/Mal functions to facilitate MyD88 recruitment to the activated TLR4 and TLR2, presumably through a simultaneous interaction with receptor and MyD88 TIR domains. Therefore, multiple TIR:TIR interaction sites are expected in TIRAP TIR. The decoy peptide approach was used to obtain leads on the functional protein-protein interfaces within TIRAP/Mal, a TLR adapter protein. To this end, eleven TIRAP TIR-derived decoy peptides were designed to be structurally homologous to the TLR4 TIR-derived decoy peptides used previously (1), so that each peptide represents a non-fragmented patch of the TIRAP TIR surface, with the entire domain encompassed by the set of peptides. The TIRAP TIR-derived decoy peptides were synthesized in tandem with the cell-permeating sequence of Antennapedia homeodomain (21) and each peptide was tested for the ability to inhibit TLR4 and TLR2 signaling in primary mouse macrophages. Peptide sequences and the structural regions they represent are shown in reference (30).
C57BL/6J mice were obtained from The Jackson Laboratory (BarHarbor, Me.). Harvesting, culturing, and stimulation of peritoneal macrophages were described in previous publications (1, 18, 19). Escherichia coli K235 LPS (34) was used at the final concentration of 100 ng/ml. The 2,3-bis(palmitoyloxy)-(2-RS)-propyl-N-palmitoyl-(R)-Cys-Ser-Lys4-OH (P3C) and S[2,3-bis(palmitoyloxy)-(2-RS)-propyl]-[R]-Cys-Ser-Lys4-OH (P2C) (EMC Microcollections, Tubingen, Germany) were used at 500 and 50 ng/ml, respectively. Oligonucleotide (ODN) 1668 and low m.w. polyinosinic-polycytidylic acid [poly(I:C)] in complex with LyoVec were obtained from InvivoGen; these agonists were used at 2.5 μM and 400 ng/ml, respectively.

[2] = tested on: TLR4; assay: LPS-induced cytokine mRNA expression in mouse macrophages (real-time RT-PCR); assay type: cell-based
Experimental: as §1
Total cellular RNA was isolated using Tripure from Roche (San Francisco, Calif.) following manufacture's protocol. RNA was then reverse transcribed using AMV Reverse Transcriptase from Promega (Madison, Wis.) with poly-T priming as per manufacturer's directions. cDNA was then quantified by real-time PCR using Applied Biosystems Fast SYBR Green PCR Master Mix and an ABI Prism 7500HT cycler. Primers used for detection: hypoxanthine phosphoribosyltransferase (HPRT) (forward: […] (SEQ ID NO:51), reverse: […] (SEQ ID NO:52)), TNFα (forward: […] (SEQ ID NO:53), reverse: […] (SEQ ID NO:54)), IL-1β (forward: […] (SEQ ID NO:55), reverse: […] (SEQ ID NO:56)), IFNβ (forward: […] (SEQ ID NO:57), reverse: CTCGGACCACCATCCAGG (SEQ ID NO:58)) and RANTES (forward: […] (SEQ ID NO:59), reverse: […] (SEQ ID NO:60)). The primers were designed using Primer Express 2.0 (Applied Biosystems). Using HPRT as reference, the ΔCt method was used to calculate relative gene expression. One-way ANOVA was preformed, as well as Dunnett's multiple comparison post hoc test with a p≦0.01 selected as the level of significance.
Total RNA was isolated with Nucleospin RNA II kits (Macherey-Nagel, Bethlehem, Pa.), followed by DNase digestion. cDNA was synthesized from 1 μg RNA using Goscript transcriptase (Promega), and subjected to real-time PCR with gene-specific primers for HPRT, TNF-α, IL-1β, IFNβ, and RANTES on H7900 ABI system using Fast SYBR Green master mix (Applied Biosystems, Foster City, Calif.).
To evaluate peptide-inhibitory activities, we first measured LPS-induced cytokine mRNA expression. […] […] Decoy peptide TM4 is derived from the BB loop of TRAM TIR; we previously identified this peptide as an effective TLR4 inhibitor (19).

[3] = tested on: TLR4; assay: LPS-induced MAPK (ERK, JNK, p38) activation in mouse macrophages (Western analysis); assay type: cell-based
Experimental: Cellular protein extracts were isolated by addition of 240 μL per well cold lysate buffer (20 mM Tris, 50 mM NaCl, 1.5 mM MgCl2, 2 mM EDTA, 10 mM NaF, 2 Mm DTT, 1 mM Na3VO4, 1% Triton). Cells were incubated with lysis solution for 30 min on agitator at 4° C. Lysate was then collected and centrifuged at 14,000 g for 10 minutes at 4° C. After quantification using BioRad protein assay, protein samples were added to Laemmli buffer and then boiled for 10 min. Samples were then resolved by SDS-10% PAGE in Tris/glycine/SDS buffer (25 mM Tris, 250 mM glycine, 0.1% SDS), and transferred onto Immobilon P transfer membranes (Millipore, Bedford, Mass.) (100 V, 1.5 h, 4° C.). Membranes were blocked for 1 h in TBS-T (20 mM Tris-HCl, 150 mM NaCl, 0.1% Tween 20) containing 5% nonfat milk, then probed for overnight at 4° C. with the respective antibodies (Abs) (dilution 1:1000 in TBS-T with 2% BSA). After washing in TBS-T, membranes were incubated with secondary HRP-conjugated, donkey anti-rabbit IgG (1:10,000 dilution in TBS-T with 5% nonfat milk) for 1 h at room temperature. Membranes washed five times in TBS-T before development with ECL reagents (GE Healthcare) according to manufacturer's directions.
HEK293T cells were transfected with indicated plasmids using Superfect Transfection Reagent (Qiagen). Twenty-four hours posttransfection, the cells were lysed using the buffer containing 20 mM HEPES (pH 7.4), 150 mM NaCl, 10 mM NaF, 2 mM Na3VO4, 1 mM EDTA, 1 mM EGTA, 0.5% Triton X-100, 0.1 M DTT, 1 mM PMSF, and protease inhibitor mixture (Roche, Indianapolis, Ind.). Rabbit Ab against phospho-ERK, phospho-JNK, MyD88 (D80F5), STAT1-Y701, total STAT1, and GAPDH were purchased from Cell Signaling Technology (Beverly, Mass.). Rabbit anti-phospho-p38 Ab was purchased from Promega (Madison, Wis.). Goat anti-TLR4 (M−16), rabbit anti-TLR4 (H-80), anti-HA-HRP (F-7), and rabbit anti-b-actin Ab were purchased from Santa Cruz Biotechnology. Mouse anti-Flag M2 and rabbit anti-HA Ab were from Sigma-Aldrich. GFP Ab (A1122) was from Invitrogen. Protein was quantified using Bio-Rad protein quantification kit. Equal amount of protein was loaded and analyzed by 10% SDS-PAGE and immunoblotting. The cell extracts containing equal amount of protein were incubated with 1 μg Ab for 2 h, followed by 4-h incubation with 25 μl protein G agarose beads (Roche); the beads were then washed four times with lysis buffer, boiled in […] sample loading buffer, and analyzed by immunoblotting.
We next examined whether TRAM peptides inhibit the TLR4-mediated p38, ERK, and JNK MAPK activation. Murine macrophages pretreated with peptides for 30 min were challenged with LPS. Cell lysates were collected 30 min post-stimulation and analyzed for MAPK phosphorylation by Western analysis. Consistent with peptide effects on steady-state mRNA, both TM4 and TM6 inhibited activation of all three MAPKs (FIG. 5C). The inhibition of MAPKs by TM4 or TM6 was long lasting; it persisted for at least 1 h after LPS stimulation (data not shown). To characterize further the effects of TRAM peptides on MAPKs, murine macrophages were treated with TRAM peptides, but not challenged by LPS.

[4] = tested on: TLR4; assay: LPS-induced cytokine secretion by mouse macrophages (ELISA/multiplex); assay type: cell-based; conditions: 5 or 20 μM peptide; LPS 100 ng/ml; supernatants 24 h
Experimental: Cytokine secretion was measured in supernatant samples collected at 6 or 24 h time points and stored at −80° C. Samples were analyzed by a multiplex assay at the University of Maryland Baltimore Cytokine Core Facility using a Luminex 100 reader and Softmax Pro software, or by ELISA kits for mouse IL-6 or TNF-α from BioLegend (San Diego, Calif.) and LT-4000 microplate reader.
A total of 2×10^6 cells was plated in 12-well plates and treated with peptides for 30 min prior to LPS stimulation. TNF-α, IL-1β, IL-6, and IFN-β were measured using ELISA kits from BioLegend (San Diego, Calif.), as recommended by the manufacturer.

[5] = tested on: TLR4; assay: LPS-induced STAT1-Y701 phosphorylation in macrophages (immunoblotting); assay type: cell-based, mouse; conditions: 2 h after LPS
[6] = tested on: mouse peritoneal macrophages; conditions: 3-h incubation; data not shown
Experimental: A total of 5×10^4 mouse peritoneal macrophages was plated into 96-well tissue culture plates, incubated overnight, and treated with peptides for 3 h. After the treatment, cells were incubated with MTT at 0.5 mg/ml (Sigma-Aldrich) for 3 h. Fifty microliters DMSO was added to cells before reading OD at 540 nm.

[7] = tested on: TLR4; conditions: from references (1, 22); cited from earlier work

RQIKIWFQNRRMKWKKCEEFQVPGRGELH [TF4]
Effective conc. [1]: 20 µM
LPS-induced (TLR4-mediated) cytokine mRNA expression ([2]; 5 or 20 μM peptide 30 min before LPS, 1 or 5 h): inhibit
LPS-induced p38, ERK, and JNK MAPK activation ([3]; lysates 30 min after LPS): inhibit
LPS-induced cytokine secretion [4]: inhibit
LPS-induced STAT1-Y701 phosphorylation [5]: inhibit

RQIKIWFQNRRMKWKKENFLRDTWCNFQFY [TM6]
Cell viability (MTT) [6]: Neither inhibitory peptide affected cell viability in a significant way

RQIKIWFQNRRMKWKKIVFAEMPCGRLHLQ [TM4]
Cell viability (MTT) [6]: Neither inhibitory peptide affected cell viability in a significant way

RQIKIWFQNRRMKWKKLHYRDFIPGVAIAA [4R4/4BB]
Effective conc. [1]: 20 µM
LPS-induced cytokine mRNA induction ([2]; peritoneal macrophages (FIG. 14A)): potently inhibit
LPS-induced activation of ERK and JNK MAPKs ([3]; peritoneal macrophages (FIG. 14B)): potently inhibit
Inhibition of TLR4 (overall) [7]: quite potent inhibitor
